Assay results published in patent US11993664B2, “Crystalline form of compound and uses thereof in medicine” (priority 2018, dated 2024).
Where “and” joins values, the source holds several entries; their conditions need not be identical. Equal entries are not always repeated. Where two headings read alike, the source gives them in different places.

Tests used:
[1] = test system: H77 replicon (genotype 1a); test: HCV replicon assay, H77 replicon; format: cell-based; settings: Hepatitis C virus
From the text: (§1) The purpose of this study was to assess the potential anti-HCV activity of SCY-635 (free base crystalline form A) in the well-characterized genotype-1 replicon. The first reproducible HCV replication system in cell culture (Huh7 hepatoma cell line) was reported in 1999 (Lohmann et al., 1999). The assay utilizes bi-cistronic subgenomic viral RNAs, or replicons, that encode nonstructural proteins and have the cis RNA elements required for autonomous replication. Replicons are self-replicating RNA molecules that contain all of the nucleotide sequences required for HCV replication, transcription, and translation, but are not infectious.
(§2) SCY-635 (free base crystalline form A) was studied in the HCV Replicon assay to evaluate its ability to inhibit HCV genomic replication. […]
(§3) The compound was dissolved in dimethyl sulfoxide (DMSO) and diluted into culture medium at five half-log concentrations, ranging from either 0.02 to 2.0 μM (for SCY-635), or 0.2 to 20 μM (for CsA). […] EC50 and EC90 values were derived from HCV RNA levels assessed as HCV RNA replicon derived LUC activity. […] IC50 and IC90 values were calculated using a colorimetric assay as an indication of cell numbers and cytotoxicity. […]

physchem = format: physicochemical; settings: water, thermodynamic from solid
Experimental: Agilent 1100 HPLC was utilized to measure solubility and purity, method listed in Table 4 and Table 5, respectively.
Solubility of the crystalline form A was estimated in six solvents at RT. Approximately 2 mg of solids were weighed into each 3-mL glass vial, to which each of the solvents in Table 8 was added in increments of 100 μL until the solids dissolved completely or the total volume reached 2 mL.

[2] = Stress testing under high temperature (60° C.); format: physicochemical; settings: for Purity / Change of purity in the high temperature test: 60° C.
[3] = monkey, in vivo
[4] = Heating experiments with HPLC purity of heated samples; format: physicochemical
Experimental: Agilent 1100 HPLC was utilized to measure solubility and purity, method listed in Table 4 and Table 5, respectively. To figure out if a different crystal form of freebase existed at elevated temperature as shown by two endothermic peaks in DSC curve in FIG. 2, heating experiments of the crystalline form A were conducted and HPLC purity of heated samples was also detected. […] Also, lower purity at 150° C. compared with 160° C. was speculated to be related to increasing isothermal time.

[5] = test system: con 1b derived bi-cistronic replicon; test: HCV replicon assay, con 1b bi-cistronic replicon; format: cell-based; settings: Hepatitis C virus, LUC endpoint, 72 hours
From the text: as §1, §2, §3

[6] = Stress testing under high photolysis (4500 Lux); format: physicochemical
[7] = design: species or system ICR mice; settings: mouse
Experimental: Pharmacokinetic test of compounds in mice (weigh: 20-25 g, male, age: 45-60 days, three members in each oral group and intravenous group) was shown as follows.
(§4) ICR mice received test compounds at a dose of 10 mg/kg by oral gavage or at a dose of 2 mg/kg or 10 mg/kg by tail intravenous injection. Blood samples of orbital vein were taken at 0.083, 0.25, 0.5, 1, 2, 4, 6, 8 and 24 hours after the administration, and collected in anticoagulation tube with EDTA-K2. The test compounds were extracted from plasma samples by liquid-liquid extraction. Then quantitative analysis was performed on a triple-quadrupole tandem mass spectrometer using multiple reaction monitoring (MRM). Pharmacokinetic parameters were calculated using a noncompartmental method by WinNonLin 6.1 software.

[8] = test system: con 1b derived full length replicon; test: HCV replicon assay, con 1b full length replicon; format: cell-based; settings: Hepatitis C virus
[9] = design: species or system beagle dogs; settings: dog
Experimental: Pharmacokinetic test of compounds in beagle dogs (weigh: 10-12 kg, male, age: 10-12 months, three members in each oral group and intravenous group) was shown as follows.
Beagle dogs received test compounds at a dose of 2.5 mg/kg or 5 mg/kg by oral gavage or at a dose of 1 mg/kg or 2 mg/kg by intravenous injection.
as §4, with “Blood” for “ICR mice received test compounds at a dose of 10 mg/kg by oral gavage or at a dose of 2 mg/kg or 10 mg/kg by tail intravenous injection. Blood”, “of” for “of orbital”, “6.3” for “6.1”

[10] = test system: human hepatoma cell line ET (lub ubi neo/ET); test: Cytotoxicity in the replicon assay (colorimetric assay of cell numbers); settings: replicon cells, 72 hours
From the text: SCY-635 (free base crystalline form A) was examined in the human hepatoma cell line ET (lub ubi neo/ET), an HCV RNA replicon containing a stable luciferase (LUC) reporter. The HCV RNA replicon ET contains the 5′ end of HCV (with the HCV Internal Ribosome Entry Site (IRES) and the first few amino acids of the HCV core protein) which drives the production of a firefly luciferase (LUC), ubiquitin, and neomycin phosphotransferase (NeoR) fusion protein. Ubiquitin cleavage releases the LUC and NeoR proteins. The EMCV IRES element controls the translation of the HCV […] NS3-NS5. The NS3 protein cleaves the HCV polyprotein to release the mature NS3, NS4A, NS4B, NS5A and NS5B proteins that are required for HCV replication. The 3′ end of the replicon contains the authentic 3′ NTR of HCV. […]
as §3

[11] = design: species or system SD rats; settings: rat
Experimental: Pharmacokinetic test of compounds of the invention in SD rats (weigh: 200-250 g, male, age: 2-3 months, three members in each oral group and intravenous group) was shown as follows. Rats received test crystal form A at a dose of 2.5 mg/kg or 5 mg/kg by oral gavage or at a dose of 1 mg/kg by intravenous injection. Blood samples of vein were taken at 0.083, 0.25, 0.5, 1, 2, 5, 7 and 24 hours after the administration, and collected in anticoagulation tube with EDTA-K2. The test compounds were extracted from plasma samples by liquid-liquid extraction. Then quantitative analysis was performed on a triple-quadrupole tandem mass spectrometer using multiple reaction monitoring (MRM). Pharmacokinetic parameters were calculated using a noncompartmental method by WinNonLin 6.3 software.

[12] = in vivo
cyclophilin A = cyclophilin A (Homo sapiens, UniProt P62937); settings: background statement; cited from earlier work
cyclophilin A, sequence (P62937 whole entry, species assumed): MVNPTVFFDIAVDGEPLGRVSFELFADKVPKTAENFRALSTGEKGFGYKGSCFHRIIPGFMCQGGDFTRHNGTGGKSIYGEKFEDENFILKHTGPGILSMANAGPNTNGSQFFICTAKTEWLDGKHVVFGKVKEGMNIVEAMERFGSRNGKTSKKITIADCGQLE

[13] = day 0, listed as The crystalline form A of SCY-635 free base
[14] = listed as crystalline form A of SCY-635 free base
[15] = heated to 150 °C, isothermal 20 min
[16] = heated to 160 °C, isothermal 3 min
[17] = heated to 170 °C, isothermal 2 min
[18] = heated to 180 °C, isothermal 3 min

## C/C=C/C[C@@H](C)[C@@H](O)[C@H]1C(=O)N[C@@H](CC)C(=O)N(C)[C@H](SCCN(C)C)C(=O)N(C)[C@@H](CC(C)(C)O)C(=O)N[C@@H](C(C)C)C(=O)N(C)[C@@H](CC(C)C)C(=O)N[C@@H](C)C(=O)N[C@H](C)C(=O)N(C)[C@@H](CC(C)C)C(=O)N(C)[C@@H](CC(C)C)C(=O)N(C)[C@@H](C(C)C)C(=O)N1C [SCY-635 free base crystalline form A, (3 S,6S,9S,12R,15S,18S,21S,24S,27R,30S,33S)-27-((2-(dimethylamino)ethyl)thio)-30-ethyl-33-((1R,2R,E)-1-hydroxy-2-methylhex-4-en-1-yl)-24-(2-hydroxy-2-methylpropyl)-6,9,18-triisobutyl-3,21-diisopropyl-1,4,7,10,12,15,19,25,28-nonamethyl-1,4,7,10,13,16,19,22,25,28,31-undecaazacyc lotritriacontan-2,5,8,11,14,17,20,23,26,29,32-undecaone]
[1]
  EC50: 0.198 µg/mL and 150 nM
  EC90: 1.38 µM and 1.82 µg/mL
physchem
  solubility: < 1100 µg/mL
[2]; [13]
  Purity: 98.0%
[2]; day 10, listed as The crystalline form A of SCY-635 free base
  Purity: 98.1%
[2]; day 30
  Purity: 98.0%
[2]; [14]
  Change of purity in the high temperature test: not changed
[2]; high temperature and photolysis conditions
  Total impurity and major impurities in stress testing: did not increase
[3]
  Oral bioavailability: orally bioavailable
[4]; [15]
  Appearance: Liquated
  Purity: 95.6 Area %
[4]; heated to 160° C.
  Solid form after heating (XRPD): converted to be amorphous
[4]; [16]
  Appearance: Liquated
  Purity: 97.6 Area %
[4]; [17]
  Appearance: Liquated
  Purity: 94.3 Area %
[4]; [18]
  Appearance: Liquated
  Purity: 88.3 Area %
[4]; starting material, not heated
  Purity: 100.0 Area %
[5]
  EC50: 100 nM and 0.132 µg/mL
  EC90: 350 nM and 0.463 µg/mL
[6]; [13]
  Purity: 98.0%
[6]; day 30
  Purity: 98.0%
[6]; [14]
  Change of purity in the high photolysis test: not changed
[7]
  Pharmacokinetic properties in vivo: better pharmacokinetic properties
[7]; in vivo, po
  Oral bioavailability: orally bioavailable
[8]
  EC50: 170 nM and 0.225 µg/mL
  EC90: 690 nM and 0.912 µg/mL
[9]
  Pharmacokinetic properties in vivo: better pharmacokinetic properties
[9]; in vivo, po
  Oral bioavailability: orally bioavailable
[10]
  Cell cytotoxicity in the replicon assay: absence of cell cytotoxicity
[11]
  Pharmacokinetic properties in vivo: better pharmacokinetic properties
[11]; in vivo, po
  Oral bioavailability: orally bioavailable
[12]; human, po
  Oral bioavailability: orally bioavailable
[12]
  Pharmacokinetic behavior: dose-dependent pharmacokinetic behavior

## C/C=C/C[C@@H](C)[C@@H](O)[C@H]1C(=O)N[C@@H](CC)C(=O)N(C)[C@H](SCCN(C)C)C(=O)N(C)[C@@H](CC(C)(C)O)C(=O)N[C@@H](C(C)C)C(=O)N(C)[C@@H](CC(C)C)C(=O)N[C@@H](C)C(=O)N[C@H](C)C(=O)N(C)[C@@H](CC(C)C)C(=O)N(C)[C@@H](CC(C)C)C(=O)N(C)[C@@H](C(C)C)C(=O)N1C [SCY-635]
Cyclophilin A
  Concentration inhibiting peptidyl prolyl isomerase (PPlase) catalytic activity: low nanomolar

## C/C=C/C[C@@H](C)[C@@H](O)[C@H]1C(=O)N[C@@H](CC)C(=O)N(C)[C@H](SCCN(C)C)C(=O)N(C)[C@@H](CC(C)(C)O)C(=O)N[C@@H](C(C)C)C(=O)N(C)[C@@H](CC(C)C)C(=O)N[C@@H](C)C(=O)N[C@H](C)C(=O)N(C)[C@@H](CC(C)C)C(=O)N(C)[C@@H](CC(C)C)C(=O)N(C)[C@@H](C(C)C)C(=O)N1C [The amorphous form of SCY-635 free base]
[2]
  Change of purity in the high temperature test: continued to decrease
[2]; day 0
  Purity: 98.2%
[2]; day 10
  Purity: 97.9%
[2]; day 50
  Purity: 97.7%
[6]
  Change of purity in the high photolysis test: continued to decrease
[6]; day 0
  Purity: 98.2%
[6]; day 10
  Purity: 98.1%
[6]; day 50
  Purity: 98.0%
